Data set [1] has as its target T1, recombinant enzyme rVKORC1 (Rattus norvegicus, UniProt Q6TEK4).
T1 sequence (Q6TEK4 1-161): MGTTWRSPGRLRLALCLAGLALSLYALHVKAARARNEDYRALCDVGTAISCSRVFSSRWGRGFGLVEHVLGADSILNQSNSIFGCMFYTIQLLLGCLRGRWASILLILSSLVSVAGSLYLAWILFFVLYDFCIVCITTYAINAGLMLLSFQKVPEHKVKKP
The data set is described as follows: Inhibition constant of the recombinant enzyme rVKORC1. Type of data set: biochemical. The procedure: In addition, the value of the inhibition constant (Kicis=60 nM) of the recombinant enzyme rVKORC1 by cis-difenacoum is similar to the value of the inhibition constant of rVKORC1 by trans-difenacoum (Kitrans=30 nM).

Data set [2] relates to Sprague Dawley male rats. The experiment in a line: Coagulation time (Quick time) after a single per os dose of purified cis- or trans-difenacoum. Type of data set: in vivo, rat. Here is the method:
The comparative study of the rodenticidal efficacy of purified trans-difenacoum and purified cis-difenacoum is carried out by administration by means of a stomach tube (per os): • of a solution of cis-difenacoum to a first group of four “Sprague Dawley” male rats weighing between 180 and 220 g, and • of a solution of trans-difenacoum to a second group of four “Sprague Dawley” male rats weighing between 180 and 220 g.
These solutions of cis-difenacoum and trans-difenacoum are obtained by weighing cis-difenacoum or trans-difenacoum and dilution in a mixture formed from 95% vegetable oil and 5% DMSO.
The doses of cis-difenacoum and trans-difenacoum used are 2.6 mg of cis-difenacoum or trans-difenacoum per kilogram of rat. The dose of 2.6 mg of cis-difenacoum and trans-difenacoum per kilogram of rat corresponds to 4 times the median lethal dose (LD50) of difenacoum for rats. The dose of 5.2 mg of cis-difenacoum or trans-difenacoum per kilogram of rat corresponds to 8 times the median lethal dose (LD50) of difenacoum for rats.
3 ml blood samples are taken from the rats anaesthetised with isoflurane in sample tubes containing citrate (3.2%). The tubes are centrifuged at 2,000 g for 10 minutes and the plasma fraction is collected.
The coagulation time (Quick time) of the plasma is analysed by means of the “Neoplastine CI Determination of Prothrombin Time” kit (Diagnostica Stago, Asnière, France) by measurement on a Thrombotimer option 2 plus (Behnk Electronik, Norderstedt, Germany).
The normal value for the coagulation time of untreated rats is 10 to 20 seconds.

Data set [3] can be described thus: Hepatic persistence of trans and cis stereoisomers after a single per os dose of a mixture (Table 1). Type of data set: in vivo, rat. As to conditions: male Sprague Dawley rats, mixture 56% trans/44% cis, 5.2 mg difenacoum/kg per os on D0, mean of 4 rats. Here is the method:
On D0 per os tube feeding is performed on male laboratory rats (Sprague Dawley rats, Charles River, Saint germain sur 1′ Arbresle, France) aged 8 weeks and with a body mass of the order of 200 g with a mixture comprising 56% of trans-difenacoum and 44% of cis-difenacoum in an amount of 5.2 mg of difenacoum per kilogram of rat. The rats are kept alive by daily subcutaneous injection of a solution of vitamin K in an amount of 1 U per rat. On D+1, D+3, D+5, D+7, D+10, D+14 and D+21, 4 rats are anaesthetised with isoflurane and then sacrificed, and the livers are removed and frozen until analysed.

The format of data set [4] is in vivo, rat. To be noted: for concentration in the liver: D+1. Here is the method:
(§1) On D0 a control composition of the prior art comprising a molar proportion of cis-difenacoum of 56% and a molar proportion of trans-difenacoum of 44% is administered per os to seven groups of four male laboratory rats (Sprague Dawley rats, Charles River, Saint germain sur l'Arbresle, France) weighing between 180 and 220 g in an amount of 5.2 mg of difenacoum per kilogram of rat. On D+1, D+3, D+5, D+7, D+10, D+14 and D+21, 4 rats are sacrificed. The livers are removed and weighed. A liquid/solid extraction of difenacoum with acetone is performed. The difenacoum is analysed by HPLC on a C8 (250 mm×10 mm) column kept at 30° C. with a mobile phase formed from 80% acetonitrile and 20% acid water. The flow rate of the mobile phase is kept at 2 ml/min and the trans-difenacoum and cis-difenacoum are detected by spectrophotometric analysis at the wavelength of 258 nm. The trans-difenacoum and cis-difenacoum are quantified by calibration with known amounts of trans-difenacoum and cis-difenacoum. The results are given in FIG. 3, in which the hepatic persistence of trans-difenacoum is represented by solid squares (▪) and the hepatic persistence of cis-difenacoum is represented by open diamonds (⋄).
On D+1 the concentration of cis-difenacoum in the liver of the female rats (9.6 μg/g of liver) is essentially equivalent to the concentration of cis-difenacoum in the liver of the male rats (7.3 μg/g of liver). The concentration on D+1 of trans-difenacoum in the liver of the female rats (3.3 μg/g of liver) is greater than the concentration of trans-difenacoum in the liver of the male rats (0.9 μg/g of liver). […] For the same dosage, the hepatic concentrations of trans-difenacoum are thus higher in the female at least up to three days after treatment (D0).

A short description of data set [5]: in vivo. On the set-up: species or system rat. As to conditions: male rats, control composition 56% cis/44% trans, 5.2 mg difenacoum/kg per os on D0; for hepatic concentration: from D+3. The procedure:
as §1

The nature of data set [6]: in vivo. As to conditions: Sprague Dawley, liver, oral, female rats. It is filed as in vivo, rat. The procedure: (§2) Counting from D0 and for three days (D0, D+1 and D+2), trans-difenacoum in an amount of 0.3 mg/kg; 0.6 mg/kg; 0.75 mg/kg; 1.2 mg/kg or 2.6 mg/kg (mg of trans-difenacoum per kilogram of female rat) is administered to female “Sprague Dawley” rats in an amount of one dose per day. On D+4, the coagulation time of these female rats is measured and the concentration of trans-difenacoum in the liver (expressed in μg of difenacoum per g of liver) of these female rats is analysed. The administration for three days (D0, D+1 and D+2) in an amount of a dose of trans-difenacoum greater than 0.3 mg/kg/day to female rats achieves at D+4 a high value of the coagulation time (greater than or equal to 500 seconds) in these female rats and a moderate hepatic persistence of less than 10 μg of trans-difenacoum per gram of liver for a dose of less than 2.6 mg/kg.

The test system of data set [7] is female Sprague Dawley rats. The experiment in a line: in vivo. Type of data set: in vivo, rat. The procedure: as §2
Data set [8] is described as follows: in vivo. Type of data set: in vivo, rat. To be noted: Sprague Dawley, rat, liver, oral; male rats, one dose per day on D0, D+1, D+2; D+3 (day following the last dose); read-out: hepatic persistence (concentration in the liver). The procedure: (§3) Counting from D0 and for three days (D0, D+1 and D+2), trans-difenacoum in an amount of 0.6 mg/kg, 1.2 mg/kg or 2.6 mg/kg (mg of trans-difenacoum per kilogram of male rat) is administered daily to “Sprague Dawley” male rats weighing between 180 and 220 g. On D+3, the coagulation time of these male rats is measured and the concentration of trans-difenacoum in the liver of these male rats (expressed in μg of trans-difenacoum per g of liver) is analysed.

The test system of data set [9] is Sprague Dawley male rats. The data set is described as follows: in vivo. Type of data set: in vivo, rat. Here is the method:
as §3

The mark [10] stands for this setting: 2.6 mg/kg per os on D0, D+1, untreated 10 to 20 seconds.

Molecules are shown by their SMILES. Where two headings read alike, the source gives them in different places. Some results are limits rather than exact numbers.

Consider `O=c1oc2ccccc2c(O)c1C1CC(c2ccc(-c3ccccc3)cc2)Cc2ccccc21` (stereo not drawn) [cis-difenacoum, 3-(biphenyl-4-yl)-1-(4-hydroxycoumarin-3-yl)-1,2,3,4-tetrahydronaphthalene, reference compound], for which, in data set [1], the Ki turned out to be 0.06 µM. The “coagulation time (Quick time)” value in data set [2] (setting [10]) amounted to 62 s. The Hepatic content worked out at 16.82 µg/g in data set [3] (D + 1, listed as cis); 8.28 µg/g in [3] (D + 3, listed as cis); 4.86 µg/g in data set [3] (D + 5, listed as cis); 1.85 µg/g in data set [3] (D + 10, listed as cis); 1.41 µg/g in data set [3] (D + 21, listed as cis). The “concentration in the liver” value is 9.6 μg/g of liver in data set [4] (female rats) and 7.3 μg/g of liver in data set [4] (male rats). Also, the hepatic concentration in data set [5] amounted to 4 µg/g.

For `O=c1oc2ccccc2c(O)c1C1CC(c2ccc(-c3ccccc3)cc2)Cc2ccccc21` (stereo not drawn) [trans-difenacoum, 3-(biphenyl-4-yl)-1-(4-hydroxycoumarin-3-yl)-1,2,3,4-tetrahydronaphthalene], the Ki in data set [1] amounted to 0.03 µM. Further, the concentration at 4 day was roughly 12000 ng/g in data set [6] (2.6 mg/kg per day, 2.6 mg per day and per kilogram of rat for 3 days, read-out: hepatic concentration); less than 10000 ng/g in data set [6] (rat, three daily doses of less than 2.6 mg/kg, D+4, read-out: hepatic persistence). Also, the “coagulability of the blood (increase in coagulation time)” value in [7] (dosage of 0.6 mg/kg or higher, three daily doses) is recorded as “uncoagulable”. Also, in data set [7] (dose greater than 0.3 mg/kg/day on D0, D+1, D+2, D+4), the coagulation time entry is “greater than or equal to 500 seconds”. Also, the “coagulation time (Quick time)” value in data set [2] (setting [10]) is 62 s; in data set [2] (5.2 mg/kg per os on D0, D+1), 84 s. Moreover, the Hepatic content in data set [3] (D + 1) was 4.22 µg/g; in [3] (D + 3), 1.05 µg/g; in [3] (D + 5), 0.25 µg/g; in data set [3] (D + 10), 0.1 µg/g; in [3] (D + 21), 0.17 µg/g. The concentration at 3 day in [8] is roughly 2000 ng/g. For the same compound, the “amount contained in a rat corpse” value in data set [9] (considering that the liver contains half the ingested trans-difenacoum) is given as “about 40 μg”. Further, the “coagulability of the blood (increase in Quick time)” value in data set [9] (male rat, dosage of 1.2 mg/kg or higher, three daily doses) is “uncoagulable”. The “global amount per liver” value in [9] (male rat, liver mass taken as of the order of 10 g) came out at 20 µg. Also, the Quick time result in data set [9] (male rats, 0.6, 1.2 or 2.6 mg/kg one dose per day on D0, D+1, D+2, D+3) is on record as “massive increase”. The “concentration in the liver, female rats in comparison with male rats” value in data set [4] (D+3) is “greater in the female rats”. The “concentration in the liver” value is recorded as 3.3 μg/g of liver in data set [4] (female rats) and 0.9 μg/g of liver in data set [4] (male rats). Moreover, the “kinetics of the hepatic elimination, female rats versus male rats” value in data set [4] (in particular during the first 3 days) is “slower in the female rats than in the male rats”. Besides, the concentration at 1 day in [5] (Sprague Dawley, rat, liver, oral, 5.2 mg/kg, D+1, read-out: hepatic concentration) is roughly 1000 ng/g. In addition, the hepatic concentration entry in data set [5] is reported as “almost undetectable”.

By Ki is commonly meant the dissociation constant of the complex between target and ligand, obtained from inhibition or displacement.

The values above are taken from patent US9706770B2, “Rodenticide bait comprising difenacoum and method for controlling target rodent pests” (priority 2014, dated 2017).
